Values quoted from earlier work as cited in PubChem BioAssay AID1259409 (Chemical Carcinogenesis Research Information System (CCRIS), 2018).
“And” between values parts separate entries of the source, which are not always exact repeats. Identical values can stand only once.

Tested on: rodent chemically induced tumor inhibition, incidence and multiplicity
Test: CCRIS tumor inhibitor studies

## CC(=O)[C@H]1C[C@@H]2C[C@H]1[C@@H](N=C=S)C2
Carcinogen: 7,12-DIMETHYLBENZ[A]ANTHRACENE, 57-97-6, Dose [Inhibitor]: 0, 100 UMOL/D IN 0.5 ML EMULPHOR EL-620 FOR 5 CONSECUTIVE DAYS BEGINNING AT 47 D OF AGE (STUDY DURATION: 155 D), Route [Inhibitor]: GAVAGE, Species: RAT, Strain/Sex: SPRAGUE-DAWLEY/FEMALE, Target Tissue: Type of Lesion: MAMMARY GLAND: TUMOR, Dose [Carcinogen]: 8 MG IN 1 ML SESAME OIL ONCE AT 50 D OF AGE, Promoter: NONE USED
  tumour outcome (control, treated, inhibition, significance): 17/25 (68%), 9/19 (47%), 31%, not significant

## COc1cc2c(cc1OC)[C@]1(O)C(=O)c3ccc4c(c3O[C@@H]1CO2)C=CC(C)(C)O4
Carcinogen: 7,12-DIMETHYLBENZ[A]ANTHRACENE, 57-97-6, Dose [Inhibitor]: 0, 85 NMOL 2/WK BEGINNING 1 WK POST CARCINOGEN DOSE (STUDY DURATION: 20 WK), Route [Inhibitor]: DERMAL, Species: MOUSE, Strain/Sex: ICR/FEMALE, Target Tissue: Type of Lesion: SKIN: PAPILLOMA, Dose [Carcinogen]: 390 NMOL, Promoter: 12-O-TETRADECANOYLPHORBOL-13-ACETATE, 16561-29-8
  tumour outcome (control, treated, inhibition, significance): 100%, 40%, 60%, not calculated

## CC(C)(C)c1cc(O)c(O)c(C(C)(C)C)c1
Carcinogen: BENZO[A]PYRENE, 50-32-8, Dose [Inhibitor]: 0.03 MMOL/G OF DIET DAILY STARTING 7 D BEFORE AND CONTINUING THROUGH 3 D AFTER CARCINOGEN TREATMENT FOLLOWED BY OBSERVAT, Route [Inhibitor]: ORAL, Species: MOUSE, Strain/Sex: ICR/FEMALE, Target Tissue: Type of Lesion: FORESTOMACH: NEOPLASM, Dose [Carcinogen]: 1 MG IN 0.2 ML CORN OIL 2/WK FOR 4 WK, Promoter: NONE USED
  tumour outcome (control, treated, inhibition, significance): 100%, 75%, 25%, p<0.05 and 95%, 74%, 22%, not significant

## COc1cc([C@@H]2Oc3cc([C@H]4Oc5cc(O)cc(O)c5C(=O)[C@@H]4O)ccc3O[C@H]2CO)ccc1O
Carcinogen: 1,2-DIMETHYLHYDRAZINE, 540-73-8, Dose [Inhibitor]: 0, 0.1% IN DIET FOR 32 WK BEGINNING AT 24 D OF AGE (STUDY DURATION: 32 WK), Route [Inhibitor]: ORAL, Species: RAT, Strain/Sex: SPRAGUE-DAWLEY/MALE, Target Tissue: Type of Lesion: COLON: ADENOCARCINOMA, Dose [Carcinogen]: 20 MG/KG 1/WK FOR 15 WK BEGINNING ON D 37, Promoter: NONE USED
  tumour outcome (control, treated, inhibition, significance): 19/22 (86%), 11/16 (69%), 20%, not calculated
Carcinogen: 1,2-DIMETHYLHYDRAZINE, 540-73-8, Dose [Inhibitor]: 0, 0.1% IN DIET FOR 32 WK BEGINNING AT 24 D OF AGE (STUDY DURATION: 32 WK), Route [Inhibitor]: ORAL, Species: RAT, Strain/Sex: SPRAGUE-DAWLEY/MALE, Target Tissue: Type of Lesion: SMALL INTESTINE: ADENOCARCINOMA, Dose [Carcinogen]: 20 MG/KG 1/WK FOR 15 WK BEGINNING ON D 37, Promoter: NONE USED
  tumour outcome (control, treated, inhibition, significance): 18/22 (82%), 9/16 (56%), 32%, not calculated
Carcinogen: N-BUTYL-N-(4-HYDROXYBUTYL)NITROSAMINE, 3817-11-6, Dose [Inhibitor]: 0, 1000 PPM IN DIET FOR 8 WK (STUDY DURATION: 32 WK), Route [Inhibitor]: ORAL, Species: MOUSE, Strain/Sex: ICR/MALE, Target Tissue: Type of Lesion: URINARY BLADDER: PAPILLOMA, Dose [Carcinogen]: 500 PPM IN DRINKING WATER FOR 6 WK BEGINNING 1 WK AFTER FIRST INHIBITOR DOSE, Promoter: NONE USED
  tumour outcome (control, treated, inhibition, significance): 2/44 (5%), 1/34 (3%), 40%, not significant
Carcinogen: N-BUTYL-N-(4-HYDROXYBUTYL)NITROSAMINE, 3817-11-6, Dose [Inhibitor]: 0, 1000 PPM IN DIET FOR 8 WK (STUDY DURATION: 32 WK), Route [Inhibitor]: ORAL, Species: MOUSE, Strain/Sex: ICR/MALE, Target Tissue: Type of Lesion: URINARY BLADDER: TRANSITIONAL CELL CARCINOMA, Dose [Carcinogen]: 500 PPM IN DRINKING WATER FOR 6 WK BEGINNING 1 WK AFTER FIRST INHIBITOR DOSE, Promoter: NONE USED
  tumour outcome (control, treated, inhibition, significance): 17/44 (39%), 4/34 (12%), 69%, p< 0.01
Carcinogen: N-BUTYL-N-(4-HYDROXYBUTYL)NITROSAMINE, 3817-11-6, Dose [Inhibitor]: 0, 1000 PPM IN DIET FOR 24 WK BEGINNING 1 WK POST FINAL CARCINOGEN DOSE (STUDY DURATION: 32 WK), Route [Inhibitor]: ORAL, Species: MOUSE, Strain/Sex: ICR/MALE, Target Tissue: Type of Lesion: URINARY BLADDER: PAPILLOMA, Dose [Carcinogen]: 500 PPM IN DRINKING WATER FOR 6 WK BEGINNING 1 WK AFTER FIRST INHIBITOR DOSE, Promoter: NONE USED
  outcome: 2/44 (5), 5/30 (17%), -240%, not significant
Carcinogen: N-BUTYL-N-(4-HYDROXYBUTYL)NITROSAMINE, 3817-11-6, Dose [Inhibitor]: 0, 1000 PPM IN DIET FOR 24 WK BEGINNING 1 WK POST FINAL CARCINOGEN DOSE (STUDY DURATION: 32 WK), Route [Inhibitor]: ORAL, Species: MOUSE, Strain/Sex: ICR/MALE, Target Tissue: Type of Lesion: URINARY BLADDER: TRANSITIONAL CELL CARCINOMA, Dose [Carcinogen]: 500 PPM IN DRINKING WATER FOR 6 WK BEGINNING 1 WK AFTER FIRST INHIBITOR DOSE, Promoter: NONE USED
  tumour outcome (control, treated, inhibition, significance): 17/44 (39%), 5/30 (17%), 56%, p< 0.05
Carcinogen: N-Butyl-N-(4-hydroxybutyl)nitrosamine, 3817-11-6, Dose [Inhibitor]: 200 mg/kg bw 1 wk before carcinogen, dose duration 51 wk, study duration 56 wk, Route [Inhibitor]: Oral (gavage) 5 d/wk, Species: Mouse, Strain/Sex: ICR/Male, Target Tissue: Type of Lesion: Urinary Bladder: carcinoma, Dose [Carcinogen]: 0, 0.5% in drinking water for 6 wk, Promoter: None
  outcome: 52%, 7.7%, p=0.001

## CC1=C(/C=C/C(C)=C/C=C/C(C)=C\C(=O)Nc2ccc(O)cc2)C(C)(C)CCC1
Carcinogen: N-BUTYL-N-(4-HYDROXYBUTYL)NITROSAMINE, 3817-11-6, Dose [Inhibitor]: 1.5 MMOL/KG DIET DAILY FOR 153 D STARTING ONE WK AFTER THE FINAL CARCINOGEN DOSE (STUDY DURATION: 210 D), Route [Inhibitor]: ORAL, Species: MOUSE, Strain/Sex: BDF/MALE, Target Tissue: Type of Lesion: URINARY BLADDER: TRANSITIONAL CELL CARCINOMA, Dose [Carcinogen]: 7.5 MG 1/WK FOR 8 WK, Promoter: NONE USED
  tumour outcome (control, treated, inhibition, significance): 35/99 (35%), 21/99 (21%), 40%, p<0.05
Carcinogen: N-BUTYL-N-(4-HYDROXYBUTYL)NITROSAMINE, 3817-11-6, Dose [Inhibitor]: 1.5 MMOL/KG/D IN DIET FOR 153 D STARTING 1 WK POST CARCINOGEN TREATMENT (STUDY DURATION: 210 D), Route [Inhibitor]: ORAL, Species: MOUSE, Strain/Sex: BDF/MALE, Target Tissue: Type of Lesion: URINARY BLADDER: TRANSITIONAL CELL CARCINOMA, Dose [Carcinogen]: 7.5 MG 1/WK FOR 8 WK, Promoter: NONE USED
  tumour outcome (control, treated, inhibition, significance): 35/99 (35%), 21/99 (21%), 40%, p<0.05
